Where two headings read alike, the source gives them in different places.

Assay [1] has as its system Balb/c splenic B cells. As to the kind of experiment: B cell activation and proliferation assay (Alamar Blue). It is filed as cell-based. The conditions noted are these: Mus musculus. In short, it runs like this:
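Balb/c splenic B cells (Ficoll, then MACS purification; 50,000/well) were preincubated 30 min with compound at 0.2% final DMSO. They were then stimulated 72 h at 37 °C with a cocktail of 10 μg/ml LPS, or 5 μg/ml anti-mouse F(ab′)2 plus 2 ng/ml mouse IL4. Alamar Blue was read after 5 h at 560Ex/590Em, giving IC50 or EC50.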
In general terms: The colour change of resazurin is a common sign of viable cells or microbes.

For assay [2], the target named is T1, PI3Kδ (Homo sapiens, UniProt O00329).
T1 construct: purchased Millipore Corporation 14-604-K
T1 sequence (O00329 whole entry): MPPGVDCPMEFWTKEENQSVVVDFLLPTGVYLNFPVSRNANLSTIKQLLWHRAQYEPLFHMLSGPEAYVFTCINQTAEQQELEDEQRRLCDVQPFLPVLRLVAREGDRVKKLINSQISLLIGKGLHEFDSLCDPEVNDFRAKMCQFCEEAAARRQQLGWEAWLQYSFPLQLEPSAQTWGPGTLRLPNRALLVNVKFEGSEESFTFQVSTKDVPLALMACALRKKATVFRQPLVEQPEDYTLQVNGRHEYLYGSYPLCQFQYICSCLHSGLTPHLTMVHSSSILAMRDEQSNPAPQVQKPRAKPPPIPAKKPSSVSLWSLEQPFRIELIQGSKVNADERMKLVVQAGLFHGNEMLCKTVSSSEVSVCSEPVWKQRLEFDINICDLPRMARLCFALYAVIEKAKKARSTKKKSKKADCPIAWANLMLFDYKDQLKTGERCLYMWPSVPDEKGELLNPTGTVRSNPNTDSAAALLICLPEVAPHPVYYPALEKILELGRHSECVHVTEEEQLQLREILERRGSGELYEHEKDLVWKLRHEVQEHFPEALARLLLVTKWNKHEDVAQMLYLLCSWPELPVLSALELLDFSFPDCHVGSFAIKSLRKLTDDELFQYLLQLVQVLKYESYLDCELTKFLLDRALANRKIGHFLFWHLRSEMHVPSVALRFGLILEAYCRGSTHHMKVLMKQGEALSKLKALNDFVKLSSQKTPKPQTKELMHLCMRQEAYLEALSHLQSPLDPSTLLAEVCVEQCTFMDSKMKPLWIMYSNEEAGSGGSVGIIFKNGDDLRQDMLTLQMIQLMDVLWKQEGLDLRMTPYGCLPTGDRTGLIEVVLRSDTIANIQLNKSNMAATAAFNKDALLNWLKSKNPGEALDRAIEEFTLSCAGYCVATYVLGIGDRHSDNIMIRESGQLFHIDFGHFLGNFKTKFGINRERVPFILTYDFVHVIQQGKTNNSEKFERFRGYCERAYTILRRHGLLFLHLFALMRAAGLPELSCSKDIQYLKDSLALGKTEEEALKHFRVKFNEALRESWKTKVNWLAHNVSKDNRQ
T1 sequence (P27986 whole entry partner): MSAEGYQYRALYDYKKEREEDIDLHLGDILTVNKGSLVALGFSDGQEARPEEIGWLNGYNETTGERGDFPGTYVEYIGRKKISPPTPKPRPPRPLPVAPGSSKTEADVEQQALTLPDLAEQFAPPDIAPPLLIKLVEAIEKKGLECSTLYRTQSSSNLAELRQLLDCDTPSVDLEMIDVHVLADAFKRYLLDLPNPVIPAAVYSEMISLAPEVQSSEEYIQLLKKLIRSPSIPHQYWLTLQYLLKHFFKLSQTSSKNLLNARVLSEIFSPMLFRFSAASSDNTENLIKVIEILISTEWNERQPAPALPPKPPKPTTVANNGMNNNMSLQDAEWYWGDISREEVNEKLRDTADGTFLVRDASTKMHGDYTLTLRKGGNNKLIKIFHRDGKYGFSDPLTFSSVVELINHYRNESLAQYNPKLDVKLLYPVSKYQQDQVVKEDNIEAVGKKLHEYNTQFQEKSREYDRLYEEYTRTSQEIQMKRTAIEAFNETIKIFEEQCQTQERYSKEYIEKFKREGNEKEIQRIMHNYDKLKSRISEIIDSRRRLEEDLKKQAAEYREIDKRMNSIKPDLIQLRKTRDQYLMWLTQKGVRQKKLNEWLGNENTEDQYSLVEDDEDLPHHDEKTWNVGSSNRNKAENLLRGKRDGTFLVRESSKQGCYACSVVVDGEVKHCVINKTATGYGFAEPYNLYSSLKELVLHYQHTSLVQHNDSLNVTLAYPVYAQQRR
Put plainly: PI3 Kinase HTRF assay, PI3Kδ. Format: biochemical. The following applies: 10 μM PIP2, 10 μM ATP, read-out: PI3K δ IC50. The source says:
(§1) A PI3-Kinase HTRF® assay kit (cat No. 33-016) purchased from Millipore Corporation was used to screen compounds provided herein. This assay used specific, high affinity binding of the GRP1 pleckstrin homology (PH) domain to PIP3, the product of a Class 1A or 1B PI3 Kinase acting on its physiological substrate PIP2. During the detection phase of the assay, a complex was generated between the GST-tagged PH domain and biotinylated short chain PIP3. The biotinylated PIP3 and the GST-tagged PH domain recruited fluorophores (Streptavidin-Allophycocyanin and Europium-labeled anti-GST respectively) to form the fluorescence resonance energy transfer (FRET) architecture, generating a stable time-resolved FRET signal. The FRET complex was disrupted in a competitive manner by non-biotinylated PIP3, a product formed in the PI3 Kinase assay.
(§2) PI3 Kinase α, β, γ and δ activity was assayed using the PI3 Kinase HTRF® assay kit (catalogue No. 33-016) purchased from Millipore Corporation. Purified recombinant PI3Kα (catalogue No. 14-602-K), PI3Kβ (catalogue No. 14-603-K), PI3Kγ (catalogue No. 14-558-K) and PI3Kδ (catalogue No. 14-604-K) were obtained from Millipore Corporation. Purified recombinant PI3K enzyme was used to catalyze the phosphorylation of phosphatidylinositol 4,5-bisphosphate (PIP2 at 10 μM) to phosphatidylinositol 3,4,5-trisphosphate (PIP3) in the presence of 10 μM ATP. The assay was carried out in 384-well format and detected using a Perkin Elmer EnVision Xcite Multilabel Reader. Emission ratios were converted into percent inhibitions and imported into GraphPad Prism software. The concentration necessary to achieve inhibition of enzyme activity by 50% (IC50) was calculated using concentrations ranging from 20 μM to 0.1 nM (12-point curve). IC50 values were determined using a nonlinear regression model available in GraphPad Prism 5. […]
(Time-resolved FRET reads energy transfer from a long-lived donor to a nearby acceptor.)

Assay [3] has as its target PI3Kβ. As to the kind of experiment: PI3 Kinase HTRF assay, PI3Kβ. Format: biochemical, human. The following applies: 10 μM PIP2, 10 μM ATP; 'Greater than 10 μM' and 'Greater than 1 μM to 10 μM'; read-out: PI3K β IC50. Summed up:
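Recombinant PI3Kβ converting PIP2 (10 μM) to PIP3 with 10 μM ATP; PIP3 detected by competitive HTRF displacement of biotin-PIP3/GST-GRP1 PH domain complex. Emission ratios converted to % inhibition; IC50 by nonlinear regression.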

Assay [4] addresses T2, PI3Kγ (Homo sapiens, UniProt P48736).
T2 construct: purchased Millipore Corporation 14-558-K
As to the kind of experiment: PI3 Kinase HTRF assay, PI3Kγ. The conditions noted are these: 10 μM PIP2, 10 μM ATP; 'Greater than 10 μM' and 'Greater than 1 μM to 10 μM'; read-out: PI3K γ IC50. It is filed as biochemical.
Excerpt: as §1, §2

Assay [5] deals with phospho-AKT in RAW 264.7 cells (PI3Kγ). As to the kind of experiment: PI3Kγ selective cellular assay: phospho-AKT in C5a stimulated RAW 264.7 cells. Format: cell-based. The following applies: Mus musculus, RAW264.7, range with units in value, read-out: IC50 for phospho-AKT, RAW 264.7 cell model. The source says:
A compound's ability in selectively inhibiting PI3Kγ can be assessed using RAW264.7 macrophages. Briefly, serum-starved PAW264.7 cells are stimulated with a known GPCR agonist C5a. (See, e.g., Camps et al., Nature Medicine (2005) 11(9): 936-943). Cells can be treated with test compounds prior to, simultaneously with, or subsequent to the stimulation by C5a. RAW 264.7 cells respond to the complement component fragment C5a through activation of the C5a receptor, and the C5a receptor activates macrophages and induces cell migration. Test compounds' ability to inhibit C5a-mediated AKT phosphorylation is indicative of selective inhibition of PI3Kγ. Thus, by monitoring the reduction of phospho-AKT in stimulated RAW 264.7 cells (using for example, phospho-AKT antibodies), a compound's potential efficacy in selectively inhibiting PI3Kγ can be assessed.
Certain compounds provided herein (e.g., Compounds I-21, I-86, I-87, I-91, I-106, and III-13) were tested in RAW 264.7 cell model using procedures as described above.

For assay [6], the target named is T3, PI3Kα (Homo sapiens, UniProt P42336).
T3 construct: purchased Millipore Corporation 14-602-K
T3 sequence (P42336 whole entry): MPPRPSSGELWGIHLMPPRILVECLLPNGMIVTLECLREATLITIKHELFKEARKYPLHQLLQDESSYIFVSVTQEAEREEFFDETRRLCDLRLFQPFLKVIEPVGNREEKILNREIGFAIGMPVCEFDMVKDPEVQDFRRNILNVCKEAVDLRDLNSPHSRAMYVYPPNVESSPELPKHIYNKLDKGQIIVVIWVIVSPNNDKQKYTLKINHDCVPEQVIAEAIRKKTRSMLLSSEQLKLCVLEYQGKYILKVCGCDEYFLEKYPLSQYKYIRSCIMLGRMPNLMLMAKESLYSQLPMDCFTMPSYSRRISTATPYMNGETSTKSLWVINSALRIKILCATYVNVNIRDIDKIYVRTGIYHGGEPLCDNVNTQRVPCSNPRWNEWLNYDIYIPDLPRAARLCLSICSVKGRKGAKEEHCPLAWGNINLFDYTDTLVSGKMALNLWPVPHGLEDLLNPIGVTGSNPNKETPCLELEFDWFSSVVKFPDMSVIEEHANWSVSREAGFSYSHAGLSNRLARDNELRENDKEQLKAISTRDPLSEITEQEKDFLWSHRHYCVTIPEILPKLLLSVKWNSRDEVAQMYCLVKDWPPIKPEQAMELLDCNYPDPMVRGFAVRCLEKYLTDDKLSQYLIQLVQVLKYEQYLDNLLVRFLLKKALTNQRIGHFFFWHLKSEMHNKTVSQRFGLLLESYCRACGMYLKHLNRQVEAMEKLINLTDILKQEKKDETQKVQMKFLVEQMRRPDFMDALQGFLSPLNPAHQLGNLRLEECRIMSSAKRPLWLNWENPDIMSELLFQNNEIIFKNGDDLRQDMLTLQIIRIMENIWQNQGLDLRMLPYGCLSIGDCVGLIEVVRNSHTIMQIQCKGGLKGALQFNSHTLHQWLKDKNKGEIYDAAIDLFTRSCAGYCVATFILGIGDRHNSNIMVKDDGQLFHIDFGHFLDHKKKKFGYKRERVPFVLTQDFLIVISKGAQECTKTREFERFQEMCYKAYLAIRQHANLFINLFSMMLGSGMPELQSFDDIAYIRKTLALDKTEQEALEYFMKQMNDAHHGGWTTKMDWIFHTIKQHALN
T3 sequence (P27986 whole entry partner): as the sequence (P27986 whole entry partner) above
As to the kind of experiment: PI3 Kinase HTRF assay, PI3Kα. It is filed as biochemical. The conditions noted are these: 10 μM PIP2, 10 μM ATP; 'Greater than 10 μM' and 'Greater than 1 μM to 10 μM'; read-out: PI3K α IC50.
Excerpt: as §1, §2

In assay [7] the test system is phospho-AKT in RAJI cells (PI3Kδ). As to the kind of experiment: PI3Kδ selective cellular assay: phospho-AKT in anti-human IgM stimulated RAJI cells. Format: cell-based. The conditions noted are these: read-out: IC50 for phospho-AKT, RAJI cell model. The source says:
A compound's ability in selectively inhibiting PI3Kδ can be assessed using RAJI cells, i.e., B lymphocyte cells derived from lymphoma patients. Briefly, serum-starved RAJI cells are stimulated with anti-human IgM, thereby causing signaling through the B-cell receptors, as described in, for example, He et al., Leukemia Research (2009) 33: 798-802. B-cell receptor signaling is important for the activation, differentiation, and survival of B cells and certain B-cell derived cancers. Reduction of phospho-AKT is indicative of compounds that may inhibit B-cell proliferation and function in certain diseases. By monitoring the reduction of phospho-AKT in stimulated RAJI cells (using for example, phospho-AKT antibodies), a compound's potential efficacy in selectively inhibiting PI3Kδ can be assessed.
Certain compounds provided herein (e.g., Compounds I-21, I-86, I-87, I-91, I-106, and III-13) were tested in RAJI cell model using procedures as described above.

Setting [8] is: 'Greater than 10 μM' and 'Greater than 1 μM to 10 μM'.
Where [9] appears, read: column 'Greater than 1 μM to 10 μM'.

Sequence of PI3Kβ (Q8BTI9 whole entry, the tested form may be a part): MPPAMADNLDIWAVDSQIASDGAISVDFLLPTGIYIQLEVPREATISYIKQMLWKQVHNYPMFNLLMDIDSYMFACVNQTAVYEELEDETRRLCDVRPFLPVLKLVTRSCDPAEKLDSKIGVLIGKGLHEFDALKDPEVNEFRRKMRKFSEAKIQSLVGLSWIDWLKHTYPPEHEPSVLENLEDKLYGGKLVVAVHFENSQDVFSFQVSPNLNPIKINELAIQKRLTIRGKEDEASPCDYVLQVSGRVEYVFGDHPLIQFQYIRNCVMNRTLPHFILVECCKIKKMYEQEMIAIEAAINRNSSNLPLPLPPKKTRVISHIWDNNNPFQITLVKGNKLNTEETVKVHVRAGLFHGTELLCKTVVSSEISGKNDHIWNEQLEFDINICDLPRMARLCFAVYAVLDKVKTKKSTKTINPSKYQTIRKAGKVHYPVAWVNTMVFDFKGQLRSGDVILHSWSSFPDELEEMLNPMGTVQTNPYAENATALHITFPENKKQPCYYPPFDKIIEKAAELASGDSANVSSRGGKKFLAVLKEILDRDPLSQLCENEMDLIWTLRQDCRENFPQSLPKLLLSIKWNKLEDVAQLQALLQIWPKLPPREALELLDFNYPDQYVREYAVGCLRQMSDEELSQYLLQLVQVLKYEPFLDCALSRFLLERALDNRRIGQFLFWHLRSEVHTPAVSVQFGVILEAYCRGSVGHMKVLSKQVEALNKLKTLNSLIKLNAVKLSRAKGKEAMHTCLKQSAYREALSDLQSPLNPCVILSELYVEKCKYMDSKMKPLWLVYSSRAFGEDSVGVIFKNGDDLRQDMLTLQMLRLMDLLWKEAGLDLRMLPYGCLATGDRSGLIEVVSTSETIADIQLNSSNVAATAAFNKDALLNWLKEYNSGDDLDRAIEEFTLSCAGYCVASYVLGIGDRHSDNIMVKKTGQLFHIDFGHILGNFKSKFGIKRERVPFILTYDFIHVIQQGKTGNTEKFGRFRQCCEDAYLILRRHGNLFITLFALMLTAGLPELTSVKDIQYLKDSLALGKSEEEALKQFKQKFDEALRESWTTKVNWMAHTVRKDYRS
T2 sequence (P48736 whole entry): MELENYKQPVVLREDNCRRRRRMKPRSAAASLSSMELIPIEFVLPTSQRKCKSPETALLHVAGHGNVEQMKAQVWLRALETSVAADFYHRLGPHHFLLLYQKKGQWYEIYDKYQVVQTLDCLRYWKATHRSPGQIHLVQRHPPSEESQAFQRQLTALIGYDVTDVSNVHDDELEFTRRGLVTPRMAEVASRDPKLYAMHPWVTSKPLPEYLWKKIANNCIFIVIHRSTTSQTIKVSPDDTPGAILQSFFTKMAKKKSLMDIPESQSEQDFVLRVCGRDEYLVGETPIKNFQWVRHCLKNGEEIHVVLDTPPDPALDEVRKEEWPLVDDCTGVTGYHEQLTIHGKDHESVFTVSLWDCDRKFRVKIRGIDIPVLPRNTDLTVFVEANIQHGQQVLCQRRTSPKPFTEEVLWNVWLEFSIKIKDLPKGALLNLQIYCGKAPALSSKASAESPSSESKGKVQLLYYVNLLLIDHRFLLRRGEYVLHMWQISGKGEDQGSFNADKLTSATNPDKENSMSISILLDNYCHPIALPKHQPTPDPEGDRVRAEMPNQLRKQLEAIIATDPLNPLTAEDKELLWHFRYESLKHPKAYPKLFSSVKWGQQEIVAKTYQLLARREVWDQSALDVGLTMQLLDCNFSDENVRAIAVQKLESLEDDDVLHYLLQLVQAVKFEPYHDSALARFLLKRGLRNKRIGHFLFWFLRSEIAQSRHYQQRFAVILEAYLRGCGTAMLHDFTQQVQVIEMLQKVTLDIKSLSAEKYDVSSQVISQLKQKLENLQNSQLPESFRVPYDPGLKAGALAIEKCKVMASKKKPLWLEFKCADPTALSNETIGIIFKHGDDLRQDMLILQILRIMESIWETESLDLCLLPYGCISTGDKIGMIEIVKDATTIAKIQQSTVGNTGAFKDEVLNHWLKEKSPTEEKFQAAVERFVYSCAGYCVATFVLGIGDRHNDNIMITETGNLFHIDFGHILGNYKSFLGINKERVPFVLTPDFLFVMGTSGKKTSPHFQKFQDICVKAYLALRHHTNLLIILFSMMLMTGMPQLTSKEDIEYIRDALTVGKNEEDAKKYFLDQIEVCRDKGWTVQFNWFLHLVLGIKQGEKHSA

`C[C@H](Nc1ncnc2cccnc12)c1cc2c(F)ccc(Cl)c2c(=O)n1-c1ccccc1` [Compound I-14] came in with an EC50 in assay [1] ('Less than 100 nM') below 0.1 µM. In addition, in assay [2] ('Less than 100 nM'), the IC50 is below 0.1 µM.

Regarding `C[C@H](Nc1ncnc2cccnc12)c1cc2scc(-c3cnn(C)c3)c2c(=O)n1-c1ccccc1` [Compound I-30], the half-maximal inhibitory concentration (IC50) in assay [3] is above 10 µM; in assay [2] (setting [8]) it was 1 to 10 µM.

Regarding `C[C@H](Nc1ncnc2cccnc12)c1cc2cccc(-c3cnn(C)c3)c2c(=O)n1C` [Compound I-46], the figures for the half-maximal inhibitory concentration (IC50) in assay [3], in assay [2] (setting [8]) and in assay [4] were above 10 µM, 1 to 10 µM and 1 to 10 µM, respectively.

In assay [1] (1 μM to 100 nM), `C[C@H](Nc1nc(Cl)nc2cccnc12)c1cc2cccc(Cl)c2c(=O)n1-c1ccccc1` [Compound I-52] gave an EC50 of 0.1 to 1 µM. For the same molecule, the half-inhibitory concentration (IC50) is above 10 µM in assay [3] and 1 to 10 µM in assay [2] (setting [8]).

Regarding `Cc1ccnc2cc(C(C)Nc3ncnc4cccnc34)[nH]c(=O)c12` (centres unmarked) [Compound I-68, 4-methyl-7-(1-(pyrido[3,2-d]pyrimidin-4-ylamino)ethyl)-1,6-naphthyridin-5(6H)-one], the IC50 in assay [3] is above 10 µM; in assay [2] (setting [8]) it was 1 to 10 µM.

Regarding `COc1ncc(-c2cccc3cc([C@H](C)Nc4cc(O)nc5cccnc45)n(-c4ccccc4)c(=O)c23)cn1` [Compound I-99], the EC50 in assay [1] (setting [9]) was 1 to 10 µM. Moreover, the IC50 in assay [3] is above 10 µM; in assay [2] (setting [8]), 1 to 10 µM.

`C[C@H](Nc1cc(O)nc2cccnc12)c1cc2cccc(Cl)c2c(=O)n1-c1ccccc1` [Compound I-100]: the EC50 in assay [1] (setting [9]) was 1 to 10 µM. Besides, the IC50 in assay [3] is above 10 µM; in assay [2] (setting [8]), 1 to 10 µM; in assay [4], 1 to 10 µM.

In the case of `C[C@H](Nc1nc(N)nc2cccnc12)c1cc2cccc(N(C)C)c2c(=O)n1-c1ccccc1` [Compound I-102], the IC50 in assay [3] was above 10 µM; in assay [2] (setting [8]), 1 to 10 µM.

Consider `CC(C)n1c([C@H](C)Nc2ncnc3cccnc23)cc2cccc(-c3ccc(=O)n(C)c3)c2c1=O` [Compound I-106], for which the half-maximal inhibitory concentration (IC50) was 1 to 10 µM in assay [3]; 0.1 to 1 µM in assay [5]; 1 to 10 µM in assay [6]; below 0.1 µM in assay [7]; 1 to 10 µM in assay [4].

For the molecule `C[C@H](Nc1cc(Cl)nn2ccnc12)c1cc2cccc(-c3cnn(C)c3)c2c(=O)n1C1CC1` [II-13], the concentration for half-maximal inhibition (IC50) is above 10 µM in assay [3], 1 to 10 µM in assay [2] (setting [8]) and 1 to 10 µM in assay [4].

As to `C[C@H](Nc1ccnc2ccnn12)c1cc2cccc(Cl)c2c(=O)n1CCN1CCCC1` [II-28], the IC50 in assay [3] and in assay [2] (setting [8]) was 1 to 10 µM throughout.

`C[C@H](Nc1ccnn2ccnc12)c1cc2cccc(Cl)c2c(=O)n1CCN1CCCC1` [II-29]: the half-maximal inhibitory concentration (IC50) in assay [3] and in assay [2] (setting [8]) was 1 to 10 µM each time.

Regarding `Cc1cn2nccc(N[C@@H](C)c3cc4cccc(Cl)c4c(=O)n3-c3cccc(F)c3)c2n1` [II-31], the 50% inhibitory concentration (IC50) in assay [3] was above 10 µM; in assay [2] (setting [8]), 1 to 10 µM; in assay [4] it was 1 to 10 µM.

`Cc1cn2nccc(N[C@@H](C)c3cc4cccc(Cl)c4c(=O)n3-c3ccccc3)c2n1` [II-32]: the IC50 in assay [3] was above 10 µM; in assay [2] (setting [8]), 1 to 10 µM; in assay [4], 1 to 10 µM.

Consider `Cc1cn2nccc(N[C@@H](C)c3cc4cccc(-c5cnn(C)c5)c4c(=O)n3-c3ccccc3)c2n1` [II-33], for which the IC50 in assay [3] was above 10 µM; in assay [2] (setting [8]), 1 to 10 µM; in assay [4] it was 1 to 10 µM.

Turning to `C[C@H](Nc1nc(Cl)nc2cccnc12)c1cc2cccc(C(F)(F)F)c2c(=O)n1-c1ccccc1` [III-22], the half-inhibitory concentration (IC50) in assay [3] is above 10 µM; in assay [2] (setting [8]), 1 to 10 µM.

In the case of `C[C@H](Nc1ncnn2cncc12)c1cc2cccc(C(F)(F)F)c2c(=O)n1-c1ccccc1` [III-28], the values for the concentration for half-maximal inhibition (IC50) in assay [3] and in assay [2] (setting [8]) were above 10 µM and 1 to 10 µM, respectively.

Turning to `C[C@@H](Nc1ncnc2cc(F)ccc12)c1cc2cccc(Cl)c2c(=O)n1-c1ccccc1` [IV-1], the IC50 in assay [3], in assay [6], in assay [2] (setting [8]) and in assay [4] was above 10 µM in each case.

On to `C[C@@H](Nc1ncnc2cc(F)c(F)cc12)c1cc2cccc(Cl)c2c(=O)n1-c1ccccc1` [IV-3], for which the IC50 in assay [3], in assay [6], in assay [2] (setting [8]) and in assay [4] was above 10 µM throughout.

Take `C[C@H](Nc1ncc2[nH]cnc2n1)c1cc2cccc(Cl)c2c(=O)n1-c1ccccc1` [IV-7]: the half-maximal inhibitory concentration (IC50) in assay [3] was above 10 µM; in assay [2] (setting [8]), 1 to 10 µM.

Take `C[C@H](NCc1cnc2cccnn12)c1cc2cccc(Cl)c2c(=O)n1-c1ccccc1` [IV-9, (S)-8-chloro-3-(1-(imidazo[1,2-b]pyridazin-3-ylmethylamino)ethyl)-2-phenylisoquinolin-1(2H)-one]: the values for the IC50 in assay [3] and in assay [2] (setting [8]) were above 10 µM and 1 to 10 µM, respectively.

Turning to `C[C@H](Nc1ncnn2cncc12)c1cc2cccc(Cl)c2c(=O)n1-c1cccc(F)c1` [IV-14], the IC50 was above 10 µM in assay [3] and 1 to 10 µM in assay [2] (setting [8]).

For the molecule `C[C@H](Nc1nc(Cl)nc2nc(Cl)cnc12)c1cc2cccc(Cl)c2c(=O)n1-c1ccccc1` [IV-19], the IC50 in assay [3] is above 10 µM; in assay [2] (setting [8]), 1 to 10 µM.

With `C[C@H](Nc1nc(Cl)nc2nccnc12)c1cc2cccc(Cl)c2c(=O)n1-c1ccccc1` [IV-20], the values for the 50% inhibitory concentration (IC50) in assay [3], in assay [2] (setting [8]) and in assay [4] were above 10 µM, 1 to 10 µM and 1 to 10 µM, respectively.

By EC50 is commonly meant the concentration that produces a half-maximal response. As usually defined, the IC50 is the point on the concentration scale where inhibition reaches its midpoint.
